For data set [1] the following is noted: cited from earlier work.
For data set [2] the following is noted: cited from earlier work. This is another data set of the same source.
For data set [3] the following is noted: cited from earlier work; for pMn: [Mn^2+] = [L] = 10 μM at pH = 7.4.
Data set [4] is described as follows: Ex vivo biodistribution after PET/CT. Type of data set: in vivo, mice. Here is the method: [^52Mn]Mn-CHXPYAN and [^52Mn]Mn-PYAN radiocomplexes were evaluated in vivo through 90 min dynamic PET/CT imaging of heathy mice followed by an ex vivo biodistribution analysis. Similarly, [^52Mn]MnCl2 was also studied as a control.
[^52Mn]Mn-CHXPYAN and [^52Mn]Mn-PYAN were synthesized with molar specific activities of 80 and 60 MBq/μmol, respectively. 1.04 ± 0.07 MBq (28 ± 2 μCi) of the radiocomplexes in 100 μL injection doses was prepared. The mice (n = 4 per group) were anesthetized with 2.5% isoflurane in oxygen and were injected via the retroorbital sinus. For comparison purposes, 1.04 ± 0.07 MBq (28 ± 2 μCi) of [^52Mn]MnCl2, pH 7 was also injected. After injection, mice were imaged on a Sofie GNEXT PET/CT scanner for a 90 min dynamic scan (9 frames of 10 min each) followed by a 3 min CT at 80 kVp for anatomical reference. PET images were reconstructed via 3D-OSEM (Ordered Subset Expectation Maximization) algorithm (24 subsets and 3 iterations), with random, attenuation, and decay correction, and CT was reconstructed with the modified Feldkamp algorithm and analyzed using VivoQuant 4.0 (Invicro Imaging Service and Software, Boston MA) software. After imaging, mice were euthanized, and organs were collected, weighed, and counted for associated radioactivity on an automated gamma counter. Radioactivity uptake was calculated as the percent injected dose per gram of tissue (% ID/g). Following the reconstruction of the images, ROIs (heart, liver, kidneys, muscle, and bone) were hand-drawn to determine the SUVs using the VivoQuant imaging software.

The conditions of data set [5]: mice; cited from earlier work.
[6] abbreviates: Mn(II) complex, 0.1 M Me4NCl, 25 °C.
Where [7] appears, read: Mn(II) complex, 0.15 M NaCl, 25 °C.
Setting [8] is: healthy mice, 1.5 h postinjection, mean ± SD, n = 4.

Like-named read-outs stand apart in the source and are kept apart here.

Consider `O=C(O)CN1CCN(CC(=O)O)CCN(CC(=O)O)CCN(CC(=O)O)CC1` [DOTA^4–, 1,4,7,10-tetraazacyclododecane-1,4,7,10-tetraacetate], for which the k0 in data set [1] (Mn(II) complex of the chelator, 0.1 M Me4NCl, 25 °C) is reported as 1.8 × 10^–7 s^–1. Moreover, the “kd at pH = 7.4” value in data set [1] (Mn(II) complex, 0.1 M Me4NCl, 25 °C, calculated using a Zn^2+ concentration of 10^–5 M) is 1.8 × 10^–7 ^a s^–1. In data set [1] (setting [6]), the k1 is listed as 4.0 × 10^–2 M^–1 s^–1, the k2 was 1.6 × 10^3 M^–2 s^–1, the “k3^Zn” value was 1.5 × 10^–5 M^–1 s^–1 and the “log*KH” value is given as 4.26.
`O=C(O)CN1CCNCCN(CC(=O)O)CCN(CC(=O)O)CC1` [DO3A^3–, 1,4,7,10-tetraazacyclododecane-1,4,7-triacetate]: in data set [1] (setting [7]), the k1 was 0.45 M^–1 s^–1, the k2 is listed as 3.2 × 10^2 M^–2 s^–1 and the “kd at pH = 7.4” value was 1.8 × 10^–8 s^–1.
Consider `O=C(O)CN(CCN(CC(=O)O)CC(=O)O)CCN(CC(=O)O)CC(=O)O` [DTPA^5–, diethylenetriamine-N,N,N′,N″,N″-pentaacetate, reference compound], for which, in data set [2] (0.15 M NaCl, 25°C), the “log K1^H” value is recorded as 9.97, the “log K2^H” value is reported as 8.40, the “log K3^H” value is on record as 4.18 and the “log K4^H” value is listed as 2.68. Moreover, in data set [2] (0.15 M NaCl, 25°C), the “log K5^H” value was 2.01 and the “log K6^H” value is recorded as 1.36. In addition, the “log KMnL” value in data set [3] (0.15 M NaCl, 25°C) is given as 14.54. In data set [3] (0.15 M NaCl), the pMn was 7.95.
For `NC(=O)CN1CCN(CC(N)=O)Cc2cccc(n2)CN(CC(N)=O)CC1` [PC3AM^H], in data set [1] (setting [7]), the k1 is 1.7 × 10^–2 M^–1 s^–1 and the “kd at pH = 7.4” value was 4.3 × 10^–10 s^–1.
For the compound `C1CNCCNCCNCCNCCNCCN1` [18-ane-N6, 1,4,7,10,13,16-Hexa-Azacyclo-Octadecane, reference compound], in data set [2] (0.2 M NaClO4, 25°C), the “log K1^H” value is 10.19, the “log K2^H” value is on record as 9.23, the “log K3^H” value was 8.73 and the “log K4^H” value was 4.09. In addition, in data set [2] (0.2 M NaClO4, 25°C), the “log K5^H” value is reported as 2 and the “log K6^H” value is under 1. Also, the “log KMnL” value in data set [3] (0.2 M NaClO4, 25°C) is reported as 10.5. Besides, in data set [3] (0.2 M NaClO4), the pMn was 5.05.
As for `O=C([O-])CN(CCN(CC(=O)[O-])CC(=O)[O-])CCN(CC(=O)[O-])CC(=O)[O-].[Mn+2]` [Mn-DTPA], the “time at which complex dissociation in the presence of Cu^2+ is complete (dead time of the stopped-flow technique)” value in data set [1] was at most 2 ms.
Consider `[52Mn+2].[Cl-].[Cl-]` [[^52Mn]MnCl2, reference compound], for which, in data set [4] (setting [8]), the “Biodistribution, Blood” value is listed as 0.60 ± 0.11 % ID/g; the “Biodistribution, Brain” value is 0.54 ± 0.26 % ID/g; the “Biodistribution, Fat” value was 1.12 ± 0.53 % ID/g; the “Biodistribution, Femur” value worked out at 2.42 ± 0.36 % ID/g. Besides, in data set [4] (setting [8]), the “Biodistribution, Heart” value was 12.14 ± 7.31 % ID/g; the “Biodistribution, Kidney” value was 38.14 ± 6.06 % ID/g; the “Biodistribution, Liver” value worked out at 13.00 ± 6.07 % ID/g; the “Biodistribution, Muscle” value is reported as 0.25 ± 0.13 % ID/g. For the same compound, in data set [4] (setting [8]), the “Biodistribution, Skin” value came out at 0.31 ± 0.11 % ID/g; the “Biodistribution, Spleen” value is 4.83 ± 2.04 % ID/g; the “Biodistribution, Stomach” value amounted to 4.78 ± 3.02 % ID/g. In addition, in data set [4] (mouse, in vivo, 1.5 h), the “Biodistribution, L. Intestine” value is listed as 6.48 ± 1.56 % ID/g and the “Biodistribution, S. Intestine” value was found to be 14.23 ± 5.70 % ID/g. For the same compound, in data set [5], the “uptake, heart” value is reported as 16.01 ± 0.1 % ID/g; the “uptake, kidney” value was 29.9 ± 9.6 % ID/g; the “uptake, liver” value is on record as 9.6 ± 1.9 % ID/g; the “uptake, pancreas” value is 4.1 ± 1.1 % ID/g. Also, the “uptake, spleen” value in data set [5] was 4.2 ± 0.6 % ID/g.
